Measurements: patent US8889591B2, “Herbicidal compositions comprising 4-amino-3-chloro-5-fluoro-6-(4-chloro-2-fluoro-3-methoxyphenyl)pyridine-2-carboxylic acid or a derivative thereof and bromobutide, daimuron, oxaziclomefone or pyributicarb” (Dow Agrosciences LLC, priority 2012, dated 2014)

Test system: FIMMI
Experiment: In-water applied greenhouse weed control, transplanted paddy rice system
Type: in vivo, Fimbristylis miliacea (L.) Vahl
Conditions: in-water application
Method: Weed seeds or nutlets of the desired test plant species were planted in puddled soil (mud) prepared by mixing a shredded, non-sterilized mineral soil (50.5 percent silt, 25.5 percent clay, and 24 percent sand, with a pH of about 7.6 and an organic matter content of about 2.9 percent) and water at a 1:1 volumetric ratio. The prepared mud was dispensed in 365 mL aliquots into 16-ounce (oz.) non-perforated plastic pots with a surface area of 86.59 square centimeters (cm^2) leaving a headspace of 3 centimeters (cm) in each pot. Mud was allowed to dry overnight prior to planting or transplanting. Rice seeds were planted in Sun Gro MetroMix® 306 planting mixture, which typically has a pH of 6.0 to 6.8 and an organic matter content of about 30 percent, in plastic plug trays. Seedlings at the second or third leaf stage of growth were transplanted into 840 mL of mud contained in 32-oz. non-perforated plastic pots with a surface area of 86.59 cm^2 4 days prior to herbicide application. The paddy was created by filling the headspace of the pots with 2.5 to 3 cm of water. When required to ensure good germination and healthy plants, a fungicide treatment and/or other chemical or physical treatment was applied. The plants were grown for 4-22 days in a greenhouse with an approximate 14 h photoperiod which was maintained at about 29° C. during the day and 26° C. during the night. Nutrients were added as Osmocote® (19:6:12, N:P:K+ minor nutrients) at 2 g per 16-oz. pot and 4 g per 32-oz. pot. Water was added on a regular basis to maintain the paddy flood, and supplemental lighting was provided with overhead metal halide 1000-Watt lamps as necessary. The plants were employed for testing when they reached the first through fourth true leaf stage.
Treatments consisted of the acid or esters of 4-amino-3-chloro-5-fluoro-6-(4-chloro-2-fluoro-3-methoxy-phenyl)pyridine-2-carboxylic acid (compound A) each formulated as an SC and various herbicidal components alone and in combination. Forms of compound A were applied on an acid equivalent basis.
Other herbicidal components were applied on an active ingredient basis and included daimuron formulated as an EC, bromobutide (technical grade material), and oxaziclomefone (technical grade material).
Treatment requirements for each compound or herbicidal component were calculated based upon the rates being tested, the concentration of active ingredient or acid equivalent in the formulation, an application volume of 2 mL per component per pot, and an application area of 86.59 cm^2 per pot.
For formulated compounds, a measured amount was placed in an individual 100 or 200 mL glass vial and was dissolved in a volume of 1.25% (v/v) Agri-Dex® crop oil concentrate to obtain application solutions.
For technical grade compounds, a weighed amount was placed in an individual 100 to 200 mL glass vial and was dissolved in a volume of acetone to obtain concentrated stock solutions. […] The concentrated stock solutions obtained were diluted with an equivalent volume of an aqueous mixture containing 2.5% (v/v) crop oil concentrate so that the final application solutions contained 1.25% (v/v) crop oil concentrate.
Applications were made by injecting, with a pipetter, appropriate amounts of the application solutions, individually and sequentially, into the aqueous layer of the paddy. Control plants were treated in the same manner with the solvent blank. Applications were made so that all treated plant material received the same concentrations of acetone and crop oil concentrate.
The treated plants and control plants were placed in a greenhouse as described above and water was added as needed to maintain a paddy flood. After approximately 3 weeks the condition of the test plants as compared with that of the untreated plants was determined visually and scored on a scale of 0 to 100 percent where 0 corresponds to no injury or growth inhibition and 100 corresponds to complete kill. […]

[1] = Compound A Benzyl Ester 8 gae/ha alone
[2] = Compound A Benzyl Ester 16 gae/ha alone

COc1c(Cl)ccc(-c2nc(C(=O)OCc3ccccc3)c(Cl)c(N)c2F)c1F [Compound A Benzyl Ester]
Visual Weed Control (%) - 19 DAA FIMMI Obs [1]: 0%
Visual Weed Control (%) - 21 DAA FIMMI Obs [1]: 15%
Visual Weed Control (%) - 19 DAA FIMMI Obs [2]: 0%
Visual Weed Control (%) - 21 DAA FIMMI Obs [2]: 65%
Visual Weed Control (%) - 21 DAA FIMMI Obs (Compound A Benzyl Ester 32 gae/ha alone): 75%
